3 compounds from patent US4997834A, “Trans-4-amino(alkyl)-1-pyridylcarbamoylcyclohexane compounds and pharmaceutical use thereof” (priority 1988, dated 1991) can be followed below.

In series [1] the test system is spontaneously hypertensive rats. The series is described as follows: Antihypertensive effect: systolic blood pressure by tail cuff method in spontaneously hypertensive rats. To be noted: 30 mg/kg orally, measured three hours after administration. Type of series: in vivo, male spontaneously hypertensive rats. The method, then:
PHARMACOLOGICAL EXPERIMENT 1: ANTIHYPERTENSIVE EFFECT
Each of 30 mg/kg of test compounds dissolving in 0.5% of hydroxypropyl-methylcellurose was orally administered to groups of 3 to 5 male spontaneously hypertensive rats weighing 350-450 g. Three hours after the administration, the systolic blood pressure was measured by tail cuff method and antihypertensive effects are examined.

The test system of a further series is left coronary artery. The experiment in a line: Effect on coronary blood flow (perfused left coronary artery, anesthetized dogs). It is filed as in vivo, adult mongrel dogs. Conditions: pentobarbital-anesthetized; for Effect of coronary blood flow, ED50 (in artery): dose increasing coronary blood flow by half of the effect of 3 μg intracoronary nifedipine, test dose 10-300 μg into coronary artery; for Effect of coronary blood flow, T1/2 (duration of effects): injection into coronary artery, 10-300 μg. The method, then:
PHARMACOLOGICAL EXPERIMENT 2: EFFECT ON CORONARY BLOOD FLOW
Groups of 2 to 3 adult mongrel dogs were anesthetized with the intraveneous administration of 30 mg/kg of body weight of sodium pentobarbital.
According to the method of Yago et. al. described in Folia Pharmacologica Japonica, vol. 57, p.380 (1961), the left coronary artery was perfused and its blood flow volume was measured. Test compound was injected into the coronary artery at a […] of 10-300 μg. The effects of test compound on coronary blood flow were expressed as ED50 (μg), a dose required to increase the coronary blood flow by a half of the effects of the coronary-artery injection of 3 μg of nifedipine [Dimethyl 2,6-dimethyl-4-(2-nitrophenyl)-1,4-dihydropyridine-3,5-dicarboxylate]. Each of half-life (T 1/2, minute) was measured as the duration of effects.

In a further series the test system is right vertebral artery. The series is described as follows: Effect on vertebral blood flow (perfused right vertebral artery, anesthetized dogs). Type of series: in vivo, adult mongrel dogs. To be noted: doses 10-100 μg (A); for Effect of vertebral blood flow, ED100: dose giving 100% of the maximum blood flow increase by 100 μg papaverine hydrochloride, 30-100 μg (B, C) into vertebral artery; for Effect of vertebral blood flow, T1/2 (duration of the effects): injection into vertebral artery, 30-100 μg (B, C). The procedure:
PHARMACOLOGICAL EXPERIMENT 3: EFFECT ON VERTEBRAL BLOOD FLOW
Groups of two adult mongrel dogs were anesthetized with the intraveneous administration of 25 mg/kg of body weight of sodium pentobarbital.
The right vertebral artery was perfused and the blood flow volume was measured. Test compound was injected in the vertebral artery. The percentage of maximum increase of blood flow by the injection of 100 μg of papaverine hydrochloride (1-[(3,4-dimethoxyphenyl)methyl]-6,7-dimethoxyisoquinoline hydrochloride) in vertebral artery was taken as 100% . The effects of test compound on vertebral artery were expressed as ED100 (μg), a dose required to obtain 100% of the increase of blood flow. Each of half-life (T 1/2, minute) was measured as the duration of the effects.

In the next series the test system is ddY strain mice. The experiment in a line: Acute toxicity, intraperitoneal, mice. It is filed as in vivo. The text has this:
EXPERIMENT OF ACUTE TOXICITY
Each of test compounds of A, B and C was intraperitoneally administered to ddY strain mice.

[2] abbreviates: intraperitoneal dose of 100 mg/kg, five days after administration.

Consider `C[C@H]1C[C@H](CN)CC[C@H]1C(=O)Nc1ccncc1` (relative stereo) [Test Compound B, Trans-4-aminomethyl-cis-2-methyl-1-(4-pyridylcarbamoyl)cyclohexane], for which the “Maximum lowering value of systolic blood pressure” value in series [1] was -44 mmHg. Besides, in the series with left coronary artery, the “Effect of coronary blood flow, ED50 (in artery)” value (from here on “Effect … (in artery)”) was 35 µg and the “Effect of coronary blood flow, T1/2 (duration of effects)” value (shortened to “Effect … (duration of effects)”) turned out to be 4.0 min. In the series on right vertebral artery, the “Effect of vertebral blood flow, ED100” value was determined as 74 µg and the “Effect of vertebral blood flow, T1/2 (duration of the effects)” value (from here on “Effect … (duration of the effects)”) came out at 4.4 min. In addition, in the series with ddY strain mice (setting [2]), the Survival of mice entry is listed as “All mice survived”.

Turning to `CC(N)[C@H]1CC[C@H](C(=O)Nc2ccncc2)CC1` (relative stereo) [Test Compound C, Trans-4-(1-aminoethyl)-1-(4-pyridylcarbamoyl)cyclohexane], the “Maximum lowering value of systolic blood pressure” value in series [1] was -52 mmHg. In addition, in the series with left coronary artery, the “Effect … (in artery)” value stood at 34 µg and the “Effect … (duration of effects)” value amounted to 3.0 min. Besides, in the series with right vertebral artery, the “Effect of vertebral blood flow, ED100” value was 58 µg and the “Effect … (duration of the effects)” value amounted to 3.0 min. In the series on ddY strain mice (mouse, in vivo, ip, 100 mg/kg), the Survival of mice result is “All mice survived”.

With `NC[C@H]1CC[C@H](C(=O)Nc2ccncc2)CC1` [Test Compound A, Trans-4-aminomethyl-1-(4-pyridylcarbamoyl)cyclohexane], in the series with left coronary artery, the “Effect … (in artery)” value came to 56 µg and the “Effect … (duration of effects)” value amounted to 1.7 min. Besides, in the series with right vertebral artery, the “Effect of vertebral blood flow, ED100” value worked out at 35 µg and the “Effect … (duration of the effects)” value turned out to be 2.1 min. In the series with ddY strain mice (setting [2]), the Survival of mice entry is reported as “All mice survived”.
